{"source": "patent US8507410B2", "about": "“Pyridazinone compound and use thereof” (Sumitomo Chemical Company, Limited, priority 2009, dated 2013)", "key": {"Echinochloa crus-galli": {"tested_on": "Echinochloa crus-galli", "test": "Test Example 1-2: foliar spray, controlling effect on Echinochloa crus-galli", "assay_type": "in vivo", "design": "key: 0 represents “no effect”; 10 represents “complete death”; a state of the plant therebetween is classified into 1 to 9", "conditions": "treatment amount 1,000 g/ha; sprayed at second- to third-leaf stage; visually evaluated after 20 days", "description": "A plastic cup with a diameter of 8 cm and a depth of 6.5 cm was filled with soil. Seeds of Echinochloa crus-galli were sowed in the cup, and then the plant was grown until the second- to third-leaf stage. Then, a determined amount of a test solution containing the compound of the present invention was sprayed onto the whole plant uniformly. The test solution was prepared by dissolving a predetermined amount of the compound of the present invention in a 2% solution of Tween 20 (polyoxyethylene sorbitan fatty acid ester, MP Biomedicals, Inc.) in dimethylformamide and then diluting the solution with water. After the spray treatment, the plant was grown in a greenhouse. After 20 days, a controlling effect of the compound on Echinochloa crus-galli was visually evaluated. The effect was classified into 11 levels, from 0 to 10 (0 represents “no effect”; 10 represents “complete death”; and a state of the plant therebetween is classified into 1 to 9).\n(§1) Compound D was similarly tested as a comparative example."}, "Lolium multiflorum": {"tested_on": "Lolium multiflorum", "test": "Test Example 1-1: foliar spray, controlling effect on Lolium multiflorum", "assay_type": "in vivo", "design": "key: 0 represents “no effect”; 10 represents “complete death”; a state of the plant therebetween is classified into 1 to 9", "conditions": "treatment amount 250 g/ha; sprayed at first to second leaf stage; visually evaluated after 20 days", "description": "A plastic cup with a diameter of 8 cm and a depth of 6.5 cm was filled with soil. Seeds of Lolium multiflorum were sowed in the cup, and then the plant was grown until the first to second leaf stage. Then, a determined amount of a test solution containing the compound of the present invention was sprayed onto the whole plant uniformly. The test solution was prepared by dissolving a predetermined amount of the compound of the present invention in a 2% solution of Tween 20 (polyoxyethylene sorbitan fatty acid ester, MP Biomedicals, Inc.) in dimethylformamide and then, diluting the solution with water. After the spray treatment, the plant was grown in a greenhouse. After 20 days, a controlling effect of the compound on Lolium multiflorum was visually evaluated. The effect was classified into 11 levels, from 0 to 10 (0 represents “no effect”; 10 represents “complete death”; and a state of the plant therebetween is classified into 1 to 9).\nCompound D as shown below was similarly tested as a comparative example."}, "Galium aparine": {"tested_on": "Galium aparine", "test": "Test Example 1-3: foliar spray, controlling effect on Galium aparine", "assay_type": "in vivo", "design": "key: 0 represents “no effect”; 10 represents “complete death”; a state of the plant therebetween is classified into 1 to 9", "conditions": "treatment amount 250 g/ha; sprayed at second- to third-leaf stage; visually evaluated after 20 days", "description": "A plastic cup with a diameter of 8 cm and a depth of 6.5 cm was filled with soil. Seeds of Galium aparine were sowed in the cup, and then the plant was grown until the second- to third-leaf stage. Then, a determined amount of a test solution containing the compound of the present invention was sprayed onto the whole plant uniformly. The test solution was prepared by dissolving a predetermined amount of the compound of the present invention in a 2% solution of Tween 20 (polyoxyethylene sorbitan fatty acid ester, MP Biomedicals, Inc.) in dimethylformamide and then diluting the solution with water. After the spray treatment, the plant was grown in a greenhouse. After 20 days, a controlling effect of the compound on Galium aparine was visually evaluated. The effect was classified into 11 levels, from 0 to 10 (0 represents “no effect”; 10 represents “complete death”; and a state of the plant therebetween is classified into 1 to 9).\nas §1"}, "Bemisia tabaci": {"tested_on": "Bemisia tabaci", "test": "Test Example 2-7: tomato seedling spray, larvae of Bemisia tabaci", "assay_type": "in vivo", "conditions": "500 ppm, 10 ml/cup sprayed on tomato seedling; 25° C., 7 days", "description": "The formulation of the compound of the present invention obtained in Reference Example 4 was diluted with water so that the concentration of the active ingredient became 500 ppm to prepare a test solution. On a tomato seedling at the third true leaf stage placed in a polyethylene cup, imagoes of Bemisia tabaci were released and allowed to lay eggs for about 24 hours. The plant was placed in a greenhouse for 8 days. When larvae of Bemisia tabaci hatched from the eggs, 10 ml/cup of the test solution was sprayed. After the plant was kept at 25° C. for 7 days, the number of the larvae surviving on the tomato leaves was counted, and a controlling value was determined by the following equation. Controlling value (%)={1−(Cb×Tai)/(Cai×Tb)}×100 wherein Cb: the number of insects in a non-treated section before treatment, Cai: the number of insects in a non-treated section on observation, Tb: the number of insects in a treated-section before treatment, Tai: the number of insects in a treated section on observation."}, "Spodoptera litura": {"tested_on": "Spodoptera litura", "test": "Test Example 2-2: artificial diet test on fourth-instar larvae of Spodoptera litura", "assay_type": "in vivo", "conditions": "500 ppm test solution, 1 mL on artificial diet; 25° C., 6 days", "description": "(§2) The formulation of the compound of the present invention obtained in Formulation Example 3 was diluted with water so that the concentration of the active ingredient became 500 ppm to prepare a test solution. An artificial diet, Insecta LF (Nihon Nosan Kogyo Corp.) was sliced into 2 mm in thickness and then placed on the bottom of a polyethylene cup. Then, 1 mL of the test solution was poured into the polyethylene cup. After air dried, 5 fourth-instar larvae of Spodoptera litura were released into the polyethylene cup, and the cup was sealed with a lid. After the polyethylene cup was kept at 25° C. for 6 days, the number of surviving insects was counted. A death rate was calculated by the following equation, and the effect of the tested compound was evaluated with the following insecticidal indexes. Death rate (%)={1−(Number of surviving insects/Number of tested insects)}×100 Insecticidal indexes 4: death rate of 100%, 3: death rate of 80-99%, 2: death rate of 60-79%, 1: death rate of 30-59%, 0: death rate of 0-29%"}, "Adoxophyes orana": {"tested_on": "Adoxophyes orana", "test": "Test Example 2-1: artificial diet test on first-instar larvae of Adoxophyes orana", "assay_type": "in vivo", "conditions": "500 ppm test solution, 1 mL on artificial diet; 25° C., 7 days", "description": "The formulation of the compound of the present invention obtained in Formulation Example 3 was diluted with water so that the concentration of the active ingredient became 500 ppm to prepare a test solution.\nas §2, with “An” for “The formulation of the compound of the present invention obtained in Formulation Example 3 was diluted with water so that the concentration of the active ingredient became 500 ppm to prepare a test solution. An”, “diet, Silkmate 2S” for “diet, Insecta LF”, “dried, 30 first-instar” for “dried, 5 fourth-instar”, “of Adoxophyes orana” for “of Spodoptera litura”, “for 7” for “for 6”"}, "Aphis gossypii": {"tested_on": "Aphis gossypii", "test": "Test Example 2-6: cucumber seedling spray, imagoes of Aphis gossypii", "assay_type": "in vivo", "conditions": "500 ppm, 10 mL sprayed on cucumber seedling one day after release; counted five days after spraying", "description": "The formulation of the compound of the present invention obtained in Reference Example 3 was diluted with water so that the concentration of the active ingredient became 500 ppm to prepare a test solution. On a cucumber seedling at the second true leaf stage placed in a polyethylene cup, about 30 imagoes of Aphis gossypii were released. One day after the release of aphids, 10 mL of the test solution was sprayed on the plant. Five days after the spraying treatment, the number of the insects parasitizing the leaves of the plant was counted, and a controlling value was determined by the following equation. Controlling value (%)={1−(Cb×Tai)/(Cai×Tb)}×100 wherein Cb: the number of insects in a non-treated section before treatment, Cai: the number of insects in a non-treated section on observation, Tb: the number of insects in a treated-section before treatment, Tai: the number of insects in a treated section on observation."}, "Culex pipiens pallens": {"tested_on": "Culex pipiens pallens", "test": "Test Example 2-3: last-instar larvae of Culex pipiens pallens released into dilution", "assay_type": "in vivo", "conditions": "active ingredient concentration 3.5 ppm in water; after 8 days", "description": "The formulation of the compound of the present invention obtained in Reference Example 3 was diluted with water so that the concentration of the active ingredient became 500 ppm to prepare a test solution. 0.7 mL of the test solution was diluted with ion-exchanged water so that the active ingredient concentration became 3.5 ppm. Into the dilution, 20 last-instar larvae of Culex pipiens pallens were released. After 8 days, the number of dead insects was counted. A death rate was calculated by the following equation, and the effect of the tested compound was evaluated with following insecticidal indexes of 4: death rate of 91-100%, 2: death rate of 11-90%, and 0: death rate of 0-10%. Death rate (%)=(Number of dead insects/Number of tested insects)×100"}, "[1]": {"tested_on": "Frankliniella occidentalis", "test": "Test Example 2-8: sprayed cucumber leaf, larvae of Frankliniella occidentalis", "assay_type": "in vivo", "conditions": "500 ppm, 10 mL/cup sprayed on cucumber seedling; 25° C., 7 days", "description": "The formulation of the compound of the present invention obtained in Reference Example 3 was diluted with water so that the concentration of the active ingredient became 500 ppm to prepare a test solution. On a cucumber seedling at the second true leaf stage planted in a polyethylene cup, 10 mL/cup of the test solution was sprayed. After the test solution was dried, the first true […] cut off and then placed in a polyethylene cup. Into the polyethylene cup, 20 larvae of Frankliniella occidentalis were released, and the cup was sealed with a lid. After the cup was kept at 25° C. for 7 days, the number of the insects surviving on the cucumber leaves was counted, and a controlling value was determined by the following equation. Controlling value (%)={1-(Cb×Tai)/(Cai×Tb)}×100 wherein Cb: the number of insects in a non-treated section before treatment, Cai: the number of insects in a non-treated section on observation, Tb: the number of insects in a treated-section before treatment, Tai: the number of insects in a treated section on observation."}}}
{"smiles": "CCc1cc(C)cc(CC)c1-c1c(OC)c(C)nn(C)c1=O", "note": "[Compound D]", "values": [{"measurement": "controlling effect on Echinochloa crus-galli (11 levels, 0 to 10)", "setting": "Echinochloa crus-galli", "result": 0}, {"measurement": "controlling effect on Lolium multiflorum (11 levels, 0 to 10)", "setting": "Lolium multiflorum", "result": 0}, {"measurement": "controlling effect on Galium aparine (11 levels, 0 to 10)", "setting": "Galium aparine", "result": 0}]}
{"smiles": "COCOc1c(C)nn(C)c(=O)c1-c1cc(-c2ccc(Cl)cc2)ccc1C", "note": "[I-1-6]", "values": [{"measurement": "controlling value", "setting": "Bemisia tabaci", "result": "≥ 90", "unit": "%"}, {"measurement": "insecticidal index (death rate)", "setting": "Spodoptera litura", "result": "3 (death rate of 80-99%)"}, {"measurement": "insecticidal index (death rate)", "setting": "Adoxophyes orana", "result": "4 (death rate of 100%)"}, {"measurement": "controlling value", "setting": "Aphis gossypii", "result": "≥ 90", "unit": "%"}, {"measurement": "insecticidal index (death rate)", "setting": "Culex pipiens pallens", "result": "4 (death rate of 91-100%)"}, {"measurement": "controlling value", "setting": "[1]", "result": "≥ 90", "unit": "%"}]}
{"smiles": "CCc1cc(CC)c(-c2c(OCS(C)(=O)=O)c(C)nn(C)c2=O)c(CC)c1", "note": "[I-4-1, 2,6-dimethyl-5-methylsulfonylmethoxy-4-(2,4,6-triethylphenyl)-3(2H)-pyridazinone]", "values": [{"measurement": "melting point", "result": "142 to 143", "unit": "°C"}]}
